Values joined by “and” are separate entries in the source; they are usually repeats but may differ in a detail not shown here. Equal entries are not always repeated. Where two headings read alike, the source gives them in different places.
Experiments:
Vaccinia virus = format: in vivo, mouse; conditions: for Number of pox / Inhibition percent: intraperitoneal; for Number of pox: 8th day after inoculation; for Inhibition percent: 8th day, vs control mouse
spleen cells of a mouse = format: cell-based

COC(=O)C1N2C(=O)C3(CC(C#N)=C(c4ccccc4)N3)C2SC1(C)C (stereo not drawn) [3'-Cyano-2'-phenyl-2'-pyrroline-5'-spiro-6-penicillanic acid methyl ester]
Number of pox (Vaccinia virus; 0.49 mg/kg × 4 times): 16.0
Inhibition percent (Vaccinia virus; 0.49 mg/kg × 4 times): 34.7%
Number of pox (Vaccinia virus; 1.95 mg/kg × 4 times): 9.1
Inhibition percent (Vaccinia virus; 1.95 mg/kg × 4 times): 62.9%
Number of pox (Vaccinia virus; 7.8 mg/kg × 4 times): 11.2
Inhibition percent (Vaccinia virus; 7.8 mg/kg × 4 times): 54.3%
interferon inducibility (in words) (Vaccinia virus; conclusion after in vivo test): excellent interferon inducibility
Interferon titre (spleen cells of a mouse): 320 unit and 160 unit
units of interferon induced (spleen cells of a mouse): 320 units
